This note sets out measurements from patent US20080319065A1, “Systemic and Intrathecal Effects of a Novel Series of Phospholipase A2 Inhibitors on Hyperalgesia and Spinal Pge2 Release” (The Regents of the University of California, priority 2005, published 2008).

Series [1] concerns the target T1, Group IVA cPLA2 (GIVA PLA2) (Homo sapiens, UniProt P47712).
T1 sequence (P47712 1-749): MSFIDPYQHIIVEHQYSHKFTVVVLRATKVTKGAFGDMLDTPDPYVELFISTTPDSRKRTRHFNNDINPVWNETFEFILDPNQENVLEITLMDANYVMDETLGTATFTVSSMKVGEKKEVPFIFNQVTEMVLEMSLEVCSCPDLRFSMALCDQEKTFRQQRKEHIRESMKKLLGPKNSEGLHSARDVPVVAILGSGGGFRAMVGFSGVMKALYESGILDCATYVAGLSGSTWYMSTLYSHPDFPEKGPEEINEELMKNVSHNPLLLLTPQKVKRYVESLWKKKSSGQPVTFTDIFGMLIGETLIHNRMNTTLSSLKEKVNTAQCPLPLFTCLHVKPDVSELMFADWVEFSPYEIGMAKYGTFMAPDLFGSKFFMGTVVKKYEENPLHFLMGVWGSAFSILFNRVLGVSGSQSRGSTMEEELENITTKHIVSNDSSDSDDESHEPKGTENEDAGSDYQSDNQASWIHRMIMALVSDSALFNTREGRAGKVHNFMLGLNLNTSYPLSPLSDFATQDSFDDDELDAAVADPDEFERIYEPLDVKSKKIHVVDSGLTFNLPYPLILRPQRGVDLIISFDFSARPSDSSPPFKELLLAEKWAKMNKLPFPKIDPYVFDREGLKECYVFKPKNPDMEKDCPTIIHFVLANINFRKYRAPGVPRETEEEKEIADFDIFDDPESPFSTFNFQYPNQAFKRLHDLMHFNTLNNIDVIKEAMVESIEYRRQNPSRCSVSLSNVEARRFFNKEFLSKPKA
As to the kind of experiment: In vitro Group IVA cPLA2 mixed micelle assay. Format: biochemical. Particulars: for Inhibition of GIVA PLA2: at highest dose; for Group IVA XI(50) (mole fraction): Table 1b. How it is done:
(§1) Numerous 2-oxoamides were tested for inhibition of PLA2s in in vitro assay systems. The data, summarized in Tables 1a, 1b and 2 are represented as XI(50) values unless otherwise noted. XI(50) is defined as the inhibitor concentration that produced 50% inhibition. XI(50) is used as opposed to the more common IC50 because GIVA and GVIA PLA2 are active at a two-dimensional lipid interface rather than in three-dimensional solution. (Deems, Anal. Biochem., 287:1-16, 2000). The 2-oxoamide inhibitors likely partition to the micelle interface and therefore must be represented as a percentage of surface concentration (mole fraction) as opposed to bulk concentration (molar units). (Kokotos, et al., J. Med. Chem., 45:2891-2893, 2002).
(§2) In vitro Group IV cPLA2 and Group VI iPLA2 assays were done as previously described (Kokotos, et al., supra, 2002). Briefly, 100 μM lipid substrate and 100,000 cpm radiolabeled analog were dried down under N2 and dissolved in assay buffer containing 400 μM Triton X-100 to yield a mixed micelle substrate solution. Inhibitors dissolved in DMSO were added to the reaction tubes and allowed to incubate with substrate for five minutes at 40° C. Pure enzyme was added to yield a final volume of 500 μl, and digestion was carried out at 40° C. for 30 minutes. Reactions were quenched and extracted using the Dole method and products were quantified by liquid scintillation counting. Percent inhibition was determined at a range of inhibitor mole fraction concentrations for XI(50) calculations.

Series [2] deals with T2, Group VIA iPLA2 (GVIA PLA2) (Homo sapiens, UniProt O60733).
T2 sequence (O60733 1-806): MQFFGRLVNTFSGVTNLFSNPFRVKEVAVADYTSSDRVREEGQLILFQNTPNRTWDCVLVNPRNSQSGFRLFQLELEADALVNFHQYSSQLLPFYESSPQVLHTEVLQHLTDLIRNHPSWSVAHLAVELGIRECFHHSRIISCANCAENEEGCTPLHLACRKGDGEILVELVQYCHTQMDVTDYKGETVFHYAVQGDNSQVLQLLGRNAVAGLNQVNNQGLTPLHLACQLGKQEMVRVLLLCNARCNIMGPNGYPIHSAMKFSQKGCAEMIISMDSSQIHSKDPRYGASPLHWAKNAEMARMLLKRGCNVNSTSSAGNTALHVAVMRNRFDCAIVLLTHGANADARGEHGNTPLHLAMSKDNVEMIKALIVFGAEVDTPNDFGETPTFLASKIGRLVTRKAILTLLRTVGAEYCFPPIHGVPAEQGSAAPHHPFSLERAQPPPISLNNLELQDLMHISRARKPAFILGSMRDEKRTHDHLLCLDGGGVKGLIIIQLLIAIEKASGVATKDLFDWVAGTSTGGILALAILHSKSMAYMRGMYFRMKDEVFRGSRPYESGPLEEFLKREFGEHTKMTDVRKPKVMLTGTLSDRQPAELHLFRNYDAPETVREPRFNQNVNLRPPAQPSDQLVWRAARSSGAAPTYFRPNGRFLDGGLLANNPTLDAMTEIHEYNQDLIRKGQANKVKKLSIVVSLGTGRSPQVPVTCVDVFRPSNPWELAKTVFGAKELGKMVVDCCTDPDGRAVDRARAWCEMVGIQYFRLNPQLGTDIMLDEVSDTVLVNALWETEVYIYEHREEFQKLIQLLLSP
Put plainly: In vitro Group VIA iPLA2 mixed micelle assay. In kind it is biochemical. The note with it: for Inhibition of GVIA PLA2: at highest dose. How it is done:
as §1, §2

Another series deals with spinal release of PGE2. Put plainly: Intrathecal dialysis and PGE2 assay. In kind it is in vivo, rat. Particulars: 3 mg/kg IP pretreatment. From the text:
For spinal drug injections, lumbar catheters were implanted in rats under isoflurane anesthesia according to a modification of the procedure described by Yaksh (Yaksh and Rudy, supra, 1976). A polyethylene catheter (PE-5; Spectranetics, 0.014 in OD) was inserted into the intrathecal space and advanced to the rostral edge of the lumbar enlargement through an incision in the atlanto-occipital membrane. Five days after implantation rats were entered into the study. In separate experiments to assess spinal prostaglandins release, rats were prepared with lumbar loop dialysis catheters with three lumens, as previously described, see (Yaksh, et al., supra, 2001).
In brief, the outer two lumens were connected to a length of dialysis tubing (10 Kda cut off). The catheter was then implanted intrathecally using the same technique as described above for the intrathecal catheter. A three-day interval was allowed to elapse prior to including the animal in a study. In all cases, the exclusion criteria were i) presence of any neurological sequelae, ii) 20% weight loss after implantation, or iii) catheter occlusion.
Spinal dialysis experiments to define the spinal release of PGE2 were conducted in unanesthetized rats 3 days after dialysis catheter implantation. A syringe pump (Harvard, Natick, Mass.) was connected and dialysis tubing was perfused with artificial cerebro spinal fluid (ACSF) at a rate of 10 μl/min. The ACSF contained (mM) 151.1 Na^+, 2.6 K^+, 0.9 Mg^2+, 1.3 Ca^2+, 122.7 Cl^−, 21.0 HCO3, 2.5 HPO4 and 3.5 dextrose and was bubbled with 95% O2/5% CO2 before each experiment to adjust the final pH to 7.2. The efflux (20 min per fraction) was collected in an automatic fraction collector (Eicom, Kyoto, Japan) at 4° C. […] The concentration of PGE2 in spinal dialysate was measured by ELISA using a commercially available kit (Assay Designs 90001, Assay Designs, Ann Arbor, Mich.). The antibody is selective for PGE2 with less than 2.0% cross-reactivity to PGF1, PGF2, 6-ketoPGF1, PGA2 or PGB2, but cross-reacts with PGE1 and PGE3.

A further series has as its target T3, GV sPLA2 (Homo sapiens, UniProt P39877).
T3 sequence (P39877 21-138): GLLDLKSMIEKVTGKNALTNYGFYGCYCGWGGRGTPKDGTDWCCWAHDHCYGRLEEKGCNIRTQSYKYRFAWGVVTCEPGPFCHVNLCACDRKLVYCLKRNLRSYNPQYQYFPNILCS
As to the kind of experiment: GV sPLA2 activity assay. In kind it is biochemical. How it is done: GV sPLA2 activity was measured in a similar assay. The final assay buffer was composed of 50 mM Tris-HCl (pH 8.0) and 5 mM CaCl2. Each assay was performed in 500 μL total volume made up of 100 μL of 5× substrate solution (20 μL of 10 mM Triton X-100 and 80 μL assay buffer), 390 μL assay buffer, 10 μL GV sPLA2 solution (1 μL of 40 ng/μL stock and 9 μL assay buffer), and 5 μL of DMSO or 2-oxoamide in DMSO. The 5× substrate solution was prepared by drying down the phospholipids (in organic solvent) with N2. The appropriate volume of 10 mM Triton X-100 was added, heated and vortexed until clear. Then assay buffer was added to make a 5× substrate solution. The final mixed micelles were at 400 μM Triton X-100 and 100 μM DPPC (of which 100,000 cpm of ^14C-DPPC).

`COC(=O)CCCNC(=O)C(=O)CCCc1ccccc1` [AX037, 4-(2-Oxo-5-phenyl-pentanoylamino)-butyric acid methyl ester] registered a melting point of 30 to 31 °C. Besides, the “Inhibition of GIVA PLA2” value in series [1] is on record as “ND (negligible inhibition (0-25%) at highest dose)”. Further, in series [2], the “Inhibition of GVIA PLA2” value was “ND (negligible inhibition (0-25%) at highest dose)”.
In turn, `O=C(O)CCCNC(=O)C(=O)CCCc1ccccc1` [AX036, 4-(2-Oxo-5-phenyl-pentanoylamino)-butyric acid] came in with a melting point of 65 to 67 °C. For the same compound, the “Inhibition of GIVA PLA2” value in series [1] is “ND (negligible inhibition (0-25%) at highest dose)”. In series [2], the “Inhibition of GVIA PLA2” value is “ND (negligible inhibition (0-25%) at highest dose)”.
With `CCC(=O)C(=O)NCCCC(=O)O` [AX006], in series [1], the “inhibition of GIVA PLA2 (cPLA2), in words” value is reported as “inhibit GIVA PLA2” and the “Group IVA XI(50) (mole fraction)” value was 0.024 ± 0.015 mole fraction. In series [2], the “inhibition of GVIA PLA2 (iPLA2), in words” value is given as “do not inhibit GVIA PLA2” and the “Inhibition of GVIA PLA2” value is “ND (negligible inhibition (0-25%) at highest dose)”. In series [2] (at 0.091 mole fraction), the “Group VIA XI(50), class” value is on record as “N.D. (25% inhibition or less at 0.091 mole fraction)”. Moreover, the “IT SP-evoked release of PGE2 in spinal dialysate” value in the series on spinal release of PGE2 is recorded as “significant increase as compared to vehicle only”.
`COC(=O)CCCNC(=O)C(=O)CCCCc1ccccc1` [AX038, 4-(2-Oxo-6-phenyl-hexanoylamino)-butyric acid methyl ester] had a melting point of 52 to 54 °C. For the same compound, the “Inhibition of GIVA PLA2” value in series [1] is “ND (negligible inhibition (0-25%) at highest dose)”. Also, the “Inhibition of GVIA PLA2” value in series [2] is on record as “ND (negligible inhibition (0-25%) at highest dose)”.
`CCCCCCCCCCCCCCC(=O)C(=O)NC(C=CC(=O)O)CCCC` (centres unmarked) [AX074, 4-(2-Oxo-hexadecanoylamino)-oct-2-enoic acid] came in with a melting point of 65 to 67 °C. Also, in series [1], the “Inhibition of GIVA PLA2, XI(50)” value was “XI(50) =0.003 ± 0.001 mole fraction” and the “inhibition of GIVA PLA2 (cPLA2), in words” value is on record as “inhibit GIVA PLA2”. Also, in series [2], the “inhibition of GVIA PLA2 (iPLA2), in words” value was “do not inhibit GVIA PLA2” and the “Inhibition of GVIA PLA2” value is “ND (negligible inhibition (0-25%) at highest dose)”.
Take `O=C(O)CCCNC(=O)C(=O)CCCCc1ccccc1` [AX035, 4-(2-Oxo-6-phenyl-hexanoylamino)-butyric acid]: the melting point was 60 to 62 °C. The “Inhibition of GIVA PLA2” value in series [1] is reported as “ND (negligible inhibition (0-25%) at highest dose)”. In addition, the “Inhibition of GVIA PLA2” value in series [2] is “ND (negligible inhibition (0-25%) at highest dose)”.
In the case of `CCCCCCCCC=CCCCCCCCC(=O)C(=O)NCCCC(=O)O` [AX040, 4-(2-Oxo-nonadec-10-enoylamino)-butyric acid], the melting point fell in the range of 57 to 59 °C. In addition, the “inhibition of GIVA PLA2 (cPLA2), in words” value in series [1] is on record as “inhibit GIVA PLA2”. Moreover, in series [2], the “inhibition of GVIA PLA2 (iPLA2), in words” value is given as “do not inhibit GVIA PLA2” and the “Inhibition of GVIA PLA2” value was “ND (negligible inhibition (0-25%) at highest dose)”.
As for `CCCCCCCCCCCCCCC(=O)C(=O)NCCCC(=O)OC(C)(C)C` [AX057, tert-Butyl 4-[(2-oxohexadecanoyl)amino]butanoate], the melting point was in the range of 61 to 62 °C. For the same compound, the “Group IVA XI(50) (mole fraction)” value in series [1] is 0.031 ± 0.017 mole fraction. For the same compound, the “Group VIA XI(50) (mole fraction)” value in series [2] (Table 1b) is listed as 0.026 ± 0.014 mole fraction. Besides, the “efficacy against sPLA2” value on GV sPLA2 (at 0.091 mole fraction) is 76.7%. For the same compound, the “IT SP-evoked release of PGE2 in spinal dialysate” value in the series on spinal release of PGE2 is given as “significant increase as compared to vehicle only”.
As to `CCOC(=O)CCNC(=O)C(=O)CC` [AX104], the inhibition at 0.091 mole fraction in series [1] (at 0.091 mole fraction, read-out: cPLA2 inh, percent inhibition (converted)) was 44%; in series [2] (at 0.091 mole fraction, read-out: iPLA2 inh, percent inhibition) it was 50.6%; at GV sPLA2 (read-out: sPLA2 inh., percent inhibition), 58.8%.
